In patent US6444617B1, “Fused-heterocycle dicarboxylic acid diamide derivatives or salts thereof, herbicide and usage thereof” (Nihon Nohyaku Co., Ltd., priority 1998, dated 2002):

Assays:
Format in all cases: in vivo
[1] = test system: bulrush (Scirpus juncoides Roxb.); assay: Test Example 2: herbicidal effect on paddy field weeds after emergence; settings: Dosage 5 kg/ha; one-leaved stage; 21 days after treatment
Description: (§1) Test for Herbicidal Effect on Paddy Field Weeds After Emergence. Soil was filled into 1/10000 are pots and brought into a state of paddy field, in which seeds of barnyard grass (Echinochloa crus-galli Beauv.), bulrush (Scirpus juncoides Roxb.) and monochoria (Monochoria vaginalis Presl) were made to reach one-leaved stage. The soil in the pots were treated with a solution containing a predetermined dosage of a chemical agent comprising a compound of the present invention listed in Tables 1 to 14. Twenty one days after the treatment, the herbicidal effect was investigated and the result was compared with that in untreated plot to calculate the weed-controlling rate, and the herbicidal effect was judged according to the same criterion as in Test Example 1.

[2] = test system: barnyard grass (Echinochloa crus-galli Beauv.); assay: as above; settings: Dosage 5 kg/ha; one-leaved stage; 21 days after treatment
Description: as §1

[3] = test system: monochoria (Monochoria vaginalis Presl); assay: as above; settings: Dosage 5 kg/ha; one-leaved stage; 21 days after treatment
Description: as §1

[4] = test system: forxtail grass (Alopecurus aequalis var. amurensis Ohwi), Am; assay: Test Example 3: herbicidal effect on upland weeds before emergence; settings: foxtail grass, dosage 5 kg/ha
Description: (§2) Herbicidal Effect on Upland Weeds Before Emergence […] Then, a liquid preparation of an agent comprising a prescribed concentration of a compound of the present invention (the compounds listed in Tables 1-14) as active ingredient was sprayed. Fourteen days after the treatment, the herbicidal effect was investigated, from which weed-killing rate was calculated in the same manner as in Test Example 1, and the herbicidal effect was judged.

[5] = test system: cleavers (Galium aparine L.), Ga; assay: as above; settings: dosage 5 kg/ha
Description: as §2

[6] = test system: velvetleaf (Abutilon theophtasti L.), At; assay: as above; settings: dosage 5 kg/ha
Description: as §2

[7] = test system: cocklebur (Xanthium strumarium L.), Xs; assay: as above; settings: dosage 5 kg/ha
Description: as §2

[8] = test system: bird's eye speedwell (Veronica persica Poir.), Vp; assay: as above; settings: dosage 5 kg/ha
Description: as §2

[9] = test system: barnyard grass (Echinochloa crus-galli Beauv.), Ec; assay: as above; settings: dosage 5 kg/ha
Description: as §2

[10] = test system: bulrush (Scirpus juncoides Roxb.); assay: Test Example 1: herbicidal effect on paddy field weeds before emergence; settings: Dosage 5 kg/ha
Description: as §1, with “Before Emergence” for “After Emergence.”, “Beauv.) and” for “Beauv.),”, “Roxb.)” for “Roxb.) and monochoria (Monochoria vaginalis Presl)”, “be before germination.” for “reach one-leaved stage.”, “investigated,” for “investigated and”, “following criterion: […]” for “same criterion as in Test Example 1.”

[11] = test system: barnyard grass (Echinochloa crus-galli Beauv.); assay: as above; settings: Dosage 5 kg/ha
Description: as §1, with “Before Emergence” for “After Emergence.”, “Beauv.) and” for “Beauv.),”, “Roxb.)” for “Roxb.) and monochoria (Monochoria vaginalis Presl)”, “be before germination.” for “reach one-leaved stage.”, “investigated,” for “investigated and”, “following criterion: […]” for “same criterion as in Test Example 1.”

soybean plant (So) = assay: Test Example 3: phytotoxicity to upland crop plants, treatment before emergence; settings: dosage 5 kg/ha
Description: as §2, with “judged. At the same time, phytotoxicity to soybean plant and wheat was investigated and judged according to the criterion mentioned below.” for “judged.”

wheat (Wh) = assay: as above; settings: dosage 5 kg/ha
Description: as §2, with “judged. At the same time, phytotoxicity to soybean plant and wheat was investigated and judged according to the criterion mentioned below.” for “judged.”

[12] = test system: forxtail grass (Alopecurus aequalis var. amurensis Ohwi), Am; assay: Test Example 4: herbicidal effect on upland weeds after emergence; settings: dosage 5 kg/ha; sprayed after emergence; judged 14 days after treatment
Excerpt: (§3) Herbicidal Effect on Upland Weeds After Emergence Polyethylene-made vats having a size of 10 cm (length)×20 cm (width)×5 cm (height) were filled with soil, sown with seeds of the following noxious upland weeds and with seeds of soybean plant and wheat as upland crop plants, and then covered with soil. The plants were made to grow up until they reached the leaf-stages mentioned below, after which an agent comprising a prescribed concentration of a compound of the present invention (listed in Tables 1 to 14) as active ingredient was sprayed. Fourteen days after the treatment, the herbicidal effect was investigated, from which weed-killing rate was calculated in the same manner as in Test Example 1 and the results were judged. […] Sample weeds, their leaf stages, and leaf stages of soybean plant and wheat were as follows: [table]

[13] = test system: cleavers (Galium aparine L.), Ga; assay: as above; settings: dosage 5 kg/ha; sprayed after emergence; judged 14 days after treatment
Excerpt: as §3

[14] = test system: velvetleaf (Abutilon theophtasti L.), At; assay: as above; settings: dosage 5 kg/ha; sprayed after emergence; judged 14 days after treatment
Excerpt: as §3

[15] = test system: cocklebur (Xanthium strumarium L.), Xs; assay: as above; settings: dosage 5 kg/ha; sprayed after emergence; judged 14 days after treatment
Excerpt: as §3

[16] = test system: bird's eye speedwell (Veronica persica Poir.), Vp; assay: as above; settings: dosage 5 kg/ha; sprayed after emergence; judged 14 days after treatment
Excerpt: as §3

[17] = test system: barnyard grass (Echinochloa crus-galli Beauv.), Ec; assay: as above; settings: dosage 5 kg/ha; sprayed after emergence; judged 14 days after treatment
Excerpt: as §3

wheat = assay: Test Example 4: phytotoxicity to upland crop plants, treatment after emergence; settings: dosage 5 kg/ha, sprayed after emergence, judged 14 days after treatment
Excerpt: as §3

soybean plant = assay: as above; settings: dosage 5 kg/ha, sprayed after emergence, judged 14 days after treatment
Excerpt: as §3

SMILES	Post-emergence treatment Bulrush (herbicidal effect) [1]	Post-emergence treatment Barnyard grass (herbicidal effect) [2]	Post-emergence treatment Monochoria (herbicidal effect) [3]	Herbicidal effect Am [4]	Herbicidal effect Ga [5]	Herbicidal effect At [6]	Herbicidal effect Xs [7]	Herbicidal effect Vp [8]	Herbicidal effect Ec [9]	Pre-emergence treatment Bulrush (herbicidal effect) [10]	Pre-emergence treatment Barnyard grass (herbicidal effect) [11]	Phytotoxicity So (soybean plant (So))	Phytotoxicity Wh (wheat (Wh))	Herbicidal effect Am [12]	Herbicidal effect Ga [13]	Herbicidal effect At [14]	Herbicidal effect Xs [15]	Herbicidal effect Vp [16]	Herbicidal effect Ec [17]	Phytotoxicity Wh (wheat)	further results
CCCNC(=O)c1cc2c(nc1C(=O)Nc1c(CC)ccc(Cl)c1CC)[S+]([O-])CC2 (stereo not drawn) [Compound No. 1028]	5 (Weed-killing rate is 100%.)	5 (Weed-killing rate is 100%.)	5 (Weed-killing rate is 100%.)	5 (Weed-killing rate is 100%.)	5 (Weed-killing rate is 100%.)	5 (Weed-killing rate is 100%.)	5 (Weed-killing rate is 100%.)	5 (Weed-killing rate is 100%.)	5 (Weed-killing rate is 100%.)	5 (Weed-killing rate is 100%.)	5 (Weed-killing rate is 100%.)	4 (Crop-killing rate is 90-99%.)	5 (Crop-killing rate is 100%.)	5 (Weed-killing rate is 100%.)	4 (Weed-killing rate is 90-99%.)	5 (Weed-killing rate is 100%.)	5 (Weed-killing rate is 100%.)	5 (Weed-killing rate is 100%.)	5 (Weed-killing rate is 100%.)	5 (Crop-killing rate is 100%.)	Phytotoxicity So (soybean plant): 4 (Crop-killing rate is 90-99%.)
CCCNC(=O)c1cc2c(nc1C(=O)Nc1c(CC)ccc(Cl)c1CC)S(=O)(=O)CC2 [Compound No. 1040, 6-(3-Chloro-2,6-diethylphenyl)-aminocarbonyl-2,3-dihydro-1,1-dioxo-thieno[2,3-b]pyridine-5-carboxylic Acid n-Propylamide]	5 (Weed-killing rate is 100%.)	5 (Weed-killing rate is 100%.)	5 (Weed-killing rate is 100%.)	5 (Weed-killing rate is 100%.)	5 (Weed-killing rate is 100%.)	5 (Weed-killing rate is 100%.)	5 (Weed-killing rate is 100%.)	5 (Weed-killing rate is 100%.)	5 (Weed-killing rate is 100%.)	5 (Weed-killing rate is 100%.)	5 (Weed-killing rate is 100%.)	4 (Crop-killing rate is 90-99%.)	5 (Crop-killing rate is 100%.)	5 (Weed-killing rate is 100%.)	5 (Weed-killing rate is 100%.)	5 (Weed-killing rate is 100%.)	5 (Weed-killing rate is 100%.)	5 (Weed-killing rate is 100%.)	5 (Weed-killing rate is 100%.)	5 (Crop-killing rate is 100%.)	Phytotoxicity So (soybean plant): 4 (Crop-killing rate is 90-99%.)
CCNC(=O)c1nc2ccc(O)cc2cc1C(=O)Nc1c(CC)ccc(Cl)c1CC [compound 275]	4 (Weed-killing rate is 90-99%.)	5 (Weed-killing rate is 100%.)	5 (Weed-killing rate is 100%.)	3 (Weed-killing rate is 70-89%.)	3 (Weed-killing rate is 70-89%.)	4 (Weed-killing rate is 90-99%.)	3 (Weed-killing rate is 70-89%.)	4 (Weed-killing rate is 90-99%.)	4 (Weed-killing rate is 90-99%.)	5 (Weed-killing rate is 100%.)	5 (Weed-killing rate is 100%.)	0 (Crop-killing rate is 0-20% (No Phytotoxicity).)	1 (Crop-killing rate is 1-39%.)	3 (Weed-killing rate is 70-89%.)	3 (Weed-killing rate is 70-89%.)	4 (Weed-killing rate is 90-99%.)	3 (Weed-killing rate is 70-89%.)	4 (Weed-killing rate is 90-99%.)	4 (Weed-killing rate is 90-99%.)	2 (Crop-killing rate is 40-69%.)	Phytotoxicity So (soybean plant): 1 (Crop-killing rate is 1-39%.)
CCCNC(=O)c1nc2ccc(O)cc2cc1C(=O)Nc1c(CC)ccc(Cl)c1CC [compound 276]	4 (Weed-killing rate is 90-99%.)	3 (Weed-killing rate is 70-89%.)	5 (Weed-killing rate is 100%.)	4 (Weed-killing rate is 90-99%.)	4 (Weed-killing rate is 90-99%.)	5 (Weed-killing rate is 100%.)	4 (Weed-killing rate is 90-99%.)	5 (Weed-killing rate is 100%.)	5 (Weed-killing rate is 100%.)	5 (Weed-killing rate is 100%.)	5 (Weed-killing rate is 100%.)	0 (Crop-killing rate is 0-20% (No Phytotoxicity).)	2 (Crop-killing rate is 40-69%.)	4 (Weed-killing rate is 90-99%.)	4 (Weed-killing rate is 90-99%.)	5 (Weed-killing rate is 100%.)	4 (Weed-killing rate is 90-99%.)	5 (Weed-killing rate is 100%.)	5 (Weed-killing rate is 100%.)	3 (Crop-killing rate is 70-89%.)	Phytotoxicity So (soybean plant): 2 (Crop-killing rate is 40-69%.)
